{"source": "patent US20230265151A1", "about": "“GIP/GLP1 CO-AGONIST COMPOUNDS” (priority 2020, published 2023)", "format_in_all_cases": "cell-based", "key": {"[1]": {"biological_target": "T1, hGIPR (Homo sapiens, UniProt P48546)", "T1 construct": "expressed in transfected cells", "T1 sequence (P48546 22-466)": "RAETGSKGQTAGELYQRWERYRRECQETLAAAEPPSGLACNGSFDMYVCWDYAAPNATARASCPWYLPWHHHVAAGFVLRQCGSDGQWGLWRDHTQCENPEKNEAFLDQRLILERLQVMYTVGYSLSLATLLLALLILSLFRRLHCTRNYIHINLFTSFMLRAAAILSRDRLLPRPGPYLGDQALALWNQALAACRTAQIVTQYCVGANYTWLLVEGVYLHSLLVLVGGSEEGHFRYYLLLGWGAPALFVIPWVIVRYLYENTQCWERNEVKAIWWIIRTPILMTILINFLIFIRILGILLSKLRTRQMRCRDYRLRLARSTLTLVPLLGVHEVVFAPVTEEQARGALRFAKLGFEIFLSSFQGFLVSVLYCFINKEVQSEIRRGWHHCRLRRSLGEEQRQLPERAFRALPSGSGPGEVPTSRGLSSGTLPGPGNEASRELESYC", "assay": "Functional cAMP formation (HTRF) in HEK-293 clonal cells expressing hGIPR, 0.1% bovine casein, without or with 1.0% human serum albumin", "conditions": "for EC50: cAMP, 0.1% bovine casein (no human serum albumin), geometric mean", "method_in_brief": "(§1)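 Readings of the HTRF 665/620 nm ratio, which falls as cAMP rises, were converted to nM cAMP using a standard curve after 30 min peptide exposure at 37° C.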"}, "[2]": {"biological_target": "T2, hGCGR (Homo sapiens, UniProt P47871)", "T2 construct": "expressed in transfected cells", "T2 sequence (P47871 26-477)": "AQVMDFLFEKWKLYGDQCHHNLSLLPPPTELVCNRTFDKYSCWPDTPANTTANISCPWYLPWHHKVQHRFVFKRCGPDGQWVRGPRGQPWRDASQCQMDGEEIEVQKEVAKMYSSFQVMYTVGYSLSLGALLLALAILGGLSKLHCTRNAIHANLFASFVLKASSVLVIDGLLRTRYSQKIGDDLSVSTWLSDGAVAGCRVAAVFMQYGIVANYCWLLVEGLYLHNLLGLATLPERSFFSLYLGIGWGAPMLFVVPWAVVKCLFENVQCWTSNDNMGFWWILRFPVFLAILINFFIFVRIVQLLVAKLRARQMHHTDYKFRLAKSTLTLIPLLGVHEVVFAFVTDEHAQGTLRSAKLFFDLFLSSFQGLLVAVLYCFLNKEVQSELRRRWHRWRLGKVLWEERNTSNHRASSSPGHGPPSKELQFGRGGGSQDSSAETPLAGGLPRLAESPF", "assay": "Functional cAMP formation (HTRF) in HEK-293 clonal cells expressing hGCGR, 0.1% bovine casein, without or with 1.0% human serum albumin", "method_in_brief": "as §1"}, "[3]": {"biological_target": "hGLP-1R (Homo sapiens, UniProt P43220)", "sequence (P43220 24-463)": "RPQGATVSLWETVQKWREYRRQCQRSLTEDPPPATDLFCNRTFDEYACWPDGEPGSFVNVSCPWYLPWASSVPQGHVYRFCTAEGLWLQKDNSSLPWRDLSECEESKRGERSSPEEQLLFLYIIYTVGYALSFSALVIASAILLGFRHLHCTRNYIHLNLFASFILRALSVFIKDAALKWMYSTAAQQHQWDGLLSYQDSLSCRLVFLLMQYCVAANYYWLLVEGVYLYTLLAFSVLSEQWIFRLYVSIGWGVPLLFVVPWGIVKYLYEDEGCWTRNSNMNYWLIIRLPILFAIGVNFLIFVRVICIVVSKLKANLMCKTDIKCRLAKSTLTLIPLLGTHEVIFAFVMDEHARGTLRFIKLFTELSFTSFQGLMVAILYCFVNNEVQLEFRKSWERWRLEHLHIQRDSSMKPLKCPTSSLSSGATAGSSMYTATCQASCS", "assay": "Functional cAMP formation (HTRF) in HEK-293 clonal cells expressing hGLP-1R, 0.1% bovine casein, without or with 1.0% human serum albumin", "set-up": "expressed in transfected cells", "conditions": "for EC50: cAMP, 0.1% bovine casein (no human serum albumin), geometric mean", "method_in_brief": "as §1"}, "[4]": {"conditions": "hGCGR EC50, nM (SEM, n), cAMP, incubated at 37° C., 0.1% bovine casein (no human serum albumin), geometric mean"}, "[5]": {"conditions": "hGLP-1R EC50, nM (SEM, n), incubated at 37° C."}}, "note": "Where two headings read alike, the source gives them in different places.", "data": [{"smiles": "CCCCCCCCCCCC(=O)N[C@@H](CCC(=O)NCCOCCOCC(=O)NCCOCCOCC(=O)NCCCC[C@H](NC(=O)[C@H](CO)NC(=O)[C@@H]1CCCN1C(=O)[C@@H]1CCCN1C(=O)[C@@H]1CCCN1C(=O)[C@H](C)NC(=O)CNC(=O)[C@H](CO)NC(=O)[C@H](CO)NC(=O)[C@@H]1CCCN1C(=O)CNC(=O)CNC(=O)[C@H](CCC(=O)O)NC(=O)[C@@H](NC(=O)[C@H](CC(C)C)NC(=O)[C@](C)(Cc1ccc(O)cc1)NC(=O)[C@@H](CCC(=O)O)NC(=O)[C@@H](NC(=O)[C@H](Cc1ccccc1)NC(=O)[C@H](Cc1ccncc1)NC(=O)C(C)(C)NC(=O)[C@H](CCC(N)=O)NC(=O)[C@H](C)NC(=O)[C@H](CCCCNC(=O)COCCOCCNC(=O)COCCOCCNC(=O)CC[C@H](NC(=O)CCCCCCCCCCC)C(=O)O)NC(=O)[C@H](CCCN)NC(=O)[C@H](CC(=O)O)NC(=O)[C@H](CC(C)C)NC(=O)[C@](C)(CC(C)C)NC(=O)[C@@H](NC(=O)C(C)(C)NC(=O)[C@H](Cc1ccncc1)NC(=O)[C@H](CC(=O)O)NC(=O)[C@H](CO)NC(=O)[C@@H](NC(=O)[C@](C)(Cc1ccccc1F)NC(=O)[C@@H](NC(=O)CNC(=O)[C@H](CCC(=O)O)NC(=O)C(C)(C)NC(=O)[C@@H](N)Cc1ccc(O)cc1)[C@@H](C)O)[C@@H](C)O)[C@@H](C)CC)[C@@H](C)CC)[C@@H](C)CC)C(N)=O)C(=O)O", "note": "[Example 420]", "values": [{"measurement": "Emax", "setting": "[1]; HEK293, cAMP, 37° C., 0.1% bovine casein and 1.0% human serum albumin, percent of maximal response to GIP(1-42)NH2, read-out: hGIPR Emax, % ± SEM", "result": 89.7, "unit": "%"}, {"measurement": "EC50", "setting": "[1]; 37° C., read-out: hGIPR EC50, nM (SEM, n)", "result": 0.00964, "unit": "nM"}, {"measurement": "EC50", "setting": "[2]; cAMP, 37° C., 0.1% bovine casein (no human serum albumin), geometric mean, read-out: hGCGR EC50, nM (SEM, n)", "result": "> 9950", "unit": "nM"}, {"measurement": "EC50", "setting": "[2]; cAMP, 37° C., 0.1% bovine casein and 1.0% human serum albumin, geometric mean (SEM, n), read-out: hGCGR EC50, nM (SEM, n)", "result": "> 9950", "unit": "nM"}, {"measurement": "Emax", "setting": "[3]; HEK293, cAMP, 37° C., 0.1% bovine casein and 1.0% human serum albumin, percent of maximal response to GLP-1(7-36)NH2, read-out: hGLP-1R Emax, % ± SEM", "result": 109, "unit": "%"}, {"measurement": "EC50", "setting": "[3]; 37° C., read-out: hGLP-1R EC50, nM (SEM, n)", "result": 0.123, "unit": "nM"}]}, {"smiles": "CC[C@H](C)[C@H](NC(=O)[C@H](CC(C)C)NC(=O)[C@](C)(Cc1ccc(O)cc1)NC(=O)[C@H](CCCCNC(=O)COCCOCCNC(=O)COCCOCCNC(=O)CC[C@H](NC(=O)CCCCCCCCCCCCC(=O)O)C(=O)O)NC(=O)[C@@H](NC(=O)[C@H](Cc1ccccc1)NC(=O)[C@H](CCC(=O)O)NC(=O)C(C)(C)NC(=O)[C@H](CCC(N)=O)NC(=O)[C@H](C)NC(=O)[C@H](CCCCNC(=O)COCCOCCNC(=O)COCCOCCNC(=O)CC[C@H](NC(=O)CCCCCCCCCCCCC(=O)O)C(=O)O)NC(=O)[C@H](CCCN)NC(=O)[C@H](CC(=O)O)NC(=O)[C@H](CC(C)C)NC(=O)[C@](C)(CC(C)C)NC(=O)[C@@H](NC(=O)[C@H](CO)NC(=O)[C@@H](NC(=O)[C@H](CC(=O)O)NC(=O)[C@H](CO)NC(=O)[C@@H](NC(=O)[C@](C)(Cc1ccccc1F)NC(=O)[C@@H](NC(=O)CNC(=O)[C@H](CCC(=O)O)NC(=O)C(C)(C)NC(=O)[C@@H](N)Cc1ccc(O)cc1)[C@@H](C)O)[C@@H](C)O)C(C)C)[C@@H](C)CC)[C@@H](C)CC)C(=O)N[C@@H](CCC(=O)O)C(=O)NCC(=O)NCC(=O)N1CCC[C@H]1C(=O)N[C@@H](CO)C(=O)N[C@@H](CO)C(=O)NCC(=O)N[C@@H](C)C(=O)N1CCC[C@H]1C(=O)N1CCC[C@H]1C(=O)N1CCC[C@H]1C(=O)N[C@@H](CO)C(N)=O", "note": "[Example 114]", "values": [{"measurement": "Emax", "setting": "[1]; HEK293, read-out: hGIPR Emax, % ± SEM, percent of maximal response to GIP(1-42)NH2, 37° C., 0.1% bovine casein, arithmetic mean", "result": 93.8, "unit": "%"}, {"measurement": "EC50", "setting": "[2]; [4]", "result": "> 9950", "unit": "nM"}, {"measurement": "Emax", "setting": "[3]; HEK293, read-out: hGLP-1R Emax, % ± SEM, percent of maximal response to GLP-1(7-36)NH2, 37° C., 0.1% bovine casein, arithmetic mean", "result": 91.7, "unit": "%"}, {"measurement": "EC50", "setting": "[3]; [5]", "result": 0.176, "unit": "nM"}]}, {"smiles": "CC[C@H](C)[C@H](NC(=O)[C@H](CC(C)C)NC(=O)[C@](C)(Cc1ccc(O)cc1)NC(=O)[C@@H](CCC(=O)O)NC(=O)[C@@H](NC(=O)[C@H](Cc1ccccc1)NC(=O)[C@H](CCCCNC(=O)COCCOCCNC(=O)COCCOCCNC(=O)COCCOCCNC(=O)CC[C@H](NC(=O)CCCCCCCCCCCCC(=O)O)C(=O)O)NC(=O)C(C)(C)NC(=O)[C@H](CCC(N)=O)NC(=O)[C@H](C)NC(=O)[C@H](CCCCNC(=O)COCCOCCNC(=O)COCCOCCNC(=O)COCCOCCNC(=O)CC[C@H](NC(=O)CCCCCCCCCCCCC(=O)O)C(=O)O)NC(=O)[C@H](CCCN)NC(=O)[C@H](CC(=O)O)NC(=O)[C@H](CC(C)C)NC(=O)[C@](C)(CC(C)C)NC(=O)[C@@H](NC(=O)[C@H](CO)NC(=O)[C@H](Cc1ccncc1)NC(=O)[C@H](CC(=O)O)NC(=O)[C@H](CO)NC(=O)[C@@H](NC(=O)[C@](C)(Cc1ccccc1F)NC(=O)[C@@H](NC(=O)CNC(=O)[C@H](CCC(=O)O)NC(=O)C(C)(C)NC(=O)[C@@H](N)Cc1ccc(O)cc1)[C@@H](C)O)[C@@H](C)O)[C@@H](C)CC)[C@@H](C)CC)C(=O)N[C@@H](CCC(=O)O)C(=O)NCC(=O)NCC(=O)N1CCC[C@H]1C(=O)N[C@@H](CO)C(=O)N[C@@H](CO)C(=O)NCC(=O)N[C@@H](C)C(=O)N1CCC[C@H]1C(=O)N1CCC[C@H]1C(=O)N1CCC[C@H]1C(=O)N[C@@H](CO)C(N)=O", "note": "[Example 77]", "values": [{"measurement": "Emax", "setting": "[1]; HEK293, percent of maximal response to GIP(1-42)NH2, 37° C., 0.1% bovine casein, arithmetic mean, read-out: hGIPR Emax, % ± SEM", "result": "94.8 ± 2.69", "unit": "%"}, {"measurement": "EC50", "setting": "[1]; incubated at 37° C., read-out: hGIPR EC50, nM (SEM, n)", "result": 0.0288, "unit": "nM"}, {"measurement": "EC50", "setting": "[2]; cAMP, incubated at 37° C., 0.1% bovine casein (no human serum albumin), geometric mean, read-out: hGCGR EC50, nM (SEM, n)", "result": "> 9950", "unit": "nM"}, {"measurement": "Emax", "setting": "[3]; HEK293, percent of maximal response to GLP-1(7-36)NH2, 37° C., 0.1% bovine casein, arithmetic mean, read-out: hGLP-1R Emax, % ± SEM", "result": "87 ± 1.71", "unit": "%"}, {"measurement": "EC50", "setting": "[3]; incubated at 37° C., read-out: hGLP-1R EC50, nM (SEM, n)", "result": 3.03, "unit": "nM"}]}, {"smiles": "CC[C@H](C)[C@H](NC(=O)[C@H](CC(C)C)NC(=O)[C@](C)(Cc1ccc(O)cc1)NC(=O)[C@@H](CCC(=O)O)NC(=O)[C@@H](NC(=O)[C@H](Cc1ccccc1)NC(=O)[C@H](CCC(=O)O)NC(=O)C(C)(C)NC(=O)[C@H](CCC(N)=O)NC(=O)[C@H](C)NC(=O)[C@H](CCCCNC(=O)COCCOCCNC(=O)COCCOCCNC(=O)CC[C@H](NC(=O)CCCCCCCCCOc1ccc(C(=O)O)cc1)C(=O)O)NC(=O)[C@H](CCCN)NC(=O)[C@H](CC(=O)O)NC(=O)[C@H](CC(C)C)NC(=O)[C@](C)(CC(C)C)NC(=O)[C@@H](NC(=O)C(C)(C)NC(=O)[C@H](Cc1ccncc1)NC(=O)[C@H](CC(=O)O)NC(=O)[C@H](CO)NC(=O)[C@@H](NC(=O)[C@](C)(Cc1ccccc1F)NC(=O)[C@@H](NC(=O)CNC(=O)[C@H](CCC(=O)O)NC(=O)C(C)(C)NC(=O)[C@@H](N)Cc1ccc(O)cc1)[C@@H](C)O)[C@@H](C)O)[C@@H](C)CC)[C@@H](C)CC)C(=O)N[C@@H](CCCCNC(=O)COCCOCCNC(=O)COCCOCCNC(=O)CC[C@H](NC(=O)CCCCCCCCCOc1ccc(C(=O)O)cc1)C(=O)O)C(=O)NCC(=O)NCC(=O)N1CCC[C@H]1C(=O)N[C@@H](CO)C(=O)N[C@@H](CO)C(=O)NCC(=O)N[C@@H](C)C(=O)N1CCC[C@H]1C(=O)N1CCC[C@H]1C(=O)N1CCC[C@H]1C(=O)N[C@@H](CO)C(N)=O", "note": "[Example 244]", "values": [{"measurement": "Emax", "setting": "[1]; HEK293, read-out: hGIPR Emax, % ± SEM, 0.1% bovine casein and 1.0% human serum albumin, 37° C., percent of maximal response to GIP(1-42)NH2", "result": 89.5, "unit": "%"}, {"measurement": "EC50", "setting": "[1]; hGIPR EC50, nM (SEM, n), incubated at 37° C.", "result": 0.0218, "unit": "nM"}, {"measurement": "EC50", "setting": "[2]; hGCGR EC50, nM (SEM, n), 0.1% bovine casein and 1.0% human serum albumin, 37° C., geometric mean", "result": "> 9950", "unit": "nM"}, {"measurement": "EC50", "setting": "[2]; [4]", "result": "> 9950", "unit": "nM"}, {"measurement": "Emax", "setting": "[3]; HEK293, read-out: hGLP-1R Emax, % ± SEM, 0.1% bovine casein and 1.0% human serum albumin, 37° C., percent of maximal response to GLP-1(7-36)NH2", "result": 96.3, "unit": "%"}, {"measurement": "EC50", "setting": "[3]; [5]", "result": 2.25, "unit": "nM"}]}]}
